Measured values taken from patent US9770445B2, “Sulfoximine substituted 5-fluoro-N-(pyridin-2-yl)pyridin-2-amine derivatives and their use as CDK9 kinase inhibitors” (BAYER PHARMA AKTIENGESELLSCHAFT, priority 2013, dated 2017).

Legend:
[1] = molecular target: T1, CDK9/CycT1 (Homo sapiens, UniProt P50750); assay: CDK9/CycT1 kinase assay (Method 1a, TR-FRET); format: biochemical; conditions: for IC50: Method 1a, 10 μM ATP; for Selectivity CDK9 over CDK2: IC50 (CDK2)/IC50 (CDK9): ratio of Method 2 to Method 1a values
T1 construct: Recombinant full-length His-tagged human CDK9 and CycT1; His; purchased Invitrogen PV4131; host or cells: insect cells
T1 sequence (P50750 whole entry): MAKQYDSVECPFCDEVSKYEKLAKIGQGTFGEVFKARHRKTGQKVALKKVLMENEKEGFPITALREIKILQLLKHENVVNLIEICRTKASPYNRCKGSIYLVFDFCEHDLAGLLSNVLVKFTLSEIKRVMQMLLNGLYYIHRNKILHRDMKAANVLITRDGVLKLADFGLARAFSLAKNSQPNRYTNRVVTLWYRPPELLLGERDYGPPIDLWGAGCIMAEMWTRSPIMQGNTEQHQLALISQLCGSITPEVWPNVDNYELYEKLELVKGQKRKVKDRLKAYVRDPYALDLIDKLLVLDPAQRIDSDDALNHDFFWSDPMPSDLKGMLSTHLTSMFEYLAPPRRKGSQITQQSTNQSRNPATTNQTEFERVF
T1 sequence (O60563 whole entry partner): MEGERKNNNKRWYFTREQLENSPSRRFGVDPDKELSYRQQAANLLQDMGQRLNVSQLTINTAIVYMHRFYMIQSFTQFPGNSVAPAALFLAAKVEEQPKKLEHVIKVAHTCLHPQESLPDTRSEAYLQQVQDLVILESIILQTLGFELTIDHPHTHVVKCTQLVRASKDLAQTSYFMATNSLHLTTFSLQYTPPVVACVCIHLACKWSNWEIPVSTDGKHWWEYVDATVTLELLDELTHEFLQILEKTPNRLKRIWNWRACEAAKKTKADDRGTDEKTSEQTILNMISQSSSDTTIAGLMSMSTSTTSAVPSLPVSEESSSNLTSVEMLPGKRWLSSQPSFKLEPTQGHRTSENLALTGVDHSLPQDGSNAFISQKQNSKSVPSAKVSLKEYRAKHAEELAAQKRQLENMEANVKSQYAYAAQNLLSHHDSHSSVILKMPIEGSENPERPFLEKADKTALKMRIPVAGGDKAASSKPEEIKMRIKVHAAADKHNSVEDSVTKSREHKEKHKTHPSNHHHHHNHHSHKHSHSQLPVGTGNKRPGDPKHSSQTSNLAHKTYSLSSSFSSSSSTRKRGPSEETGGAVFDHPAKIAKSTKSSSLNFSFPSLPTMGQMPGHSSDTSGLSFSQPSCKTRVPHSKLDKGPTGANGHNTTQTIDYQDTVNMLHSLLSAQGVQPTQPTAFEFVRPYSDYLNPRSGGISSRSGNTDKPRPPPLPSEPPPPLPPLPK
From the text: 1a. CDK9/CyeT1 Kinase Assay:
CDK9/CycT1-inhibitory activity of compounds of the present invention was quantified employing the CDK9/CycT1 TR-FRET assay as described in the following paragraphs:
Recombinant full-length His-tagged human CDK9 and CycT1, expressed in insect cells and purified by Ni-NTA affinity chromatography, were purchased from Invitrogen (Cat. No PV4131). As substrate for the kinase reaction biotinylated peptide biotin-Ttds-YISPLKSPYKISEG (C-terminus in amid form) was used which can be purchased e.g. form the company JERINI Peptide Technologies (Berlin, Germany). For the assay 50 nl of a 100 fold concentrated solution of the test compound in DMSO was pipetted into a black low volume 384 well microtiter plate (Greiner Bio-One, Frickenhausen, Germany), 2 μl of a solution of CDK9/CycT1 in aqueous assay buffer [50 mM Tris/HCl pH 8.0, 10 mM MgCl2, 1.0 mM dithiothreitol, 0.1 mM sodium ortho-vanadate, 0.01% (v/v) Nonidet-P40 (Sigma)] were added and the mixture was incubated for 15 min at 22° C. to allow pre-binding of the test compounds to the enzyme before the start of the kinase reaction. Then the kinase reaction was started by the addition of 3 μl of a solution of adenosine-tri-phosphate (ATP, 16.7 μM=>final conc. in the 5 μl assay volume is 10 μM) and substrate (1.67 μM=>final conc. in the 5 μl assay volume is 1 μM) in assay buffer and the resulting mixture was incubated for a reaction time of 25 min at 22° C. The concentration of CDK9/CycT1 was adjusted depending of the activity of the enzyme lot and was chosen appropriate to have the assay in the linear range, typical concentrations were in the range of 1 μg/mL. The reaction was stopped by the addition of 5 μl of a solution of TR-FRET detection reagents (0.2 μM streptavidine-XL665 [Cisbio Bioassays, Codolet, France] and 1 nM anti-RB(pSer807/pSer811)-antibody from BD Pharmingen [#558389] and 1.2 nM LANCE EU-W1024 labeled anti-mouse IgG antibody [Perkin-Elmer, product no. AD0077]) in an aqueous EDTA-solution (100 mM EDTA, 0.2% (w/v) bovine serum albumin in 100 mM HEPES/NaOH pH 7.0).
The resulting mixture was incubated 1 h at 22° C. to allow the formation of complex between the phosphorylated biotinylated peptide and the detection reagents. Subsequently the amount of phosphorylated substrate was evaluated by measurement of the resonance energy transfer from the Eu-chelate to the streptavidine-XL. Therefore, the fluorescence emissions at 620 nm and 665 nm after excitation at 350 nm was measured in a HTRF reader, e.g. a Rubystar (BMG Labtechnologies, Offenburg, Germany) or a Viewlux (Perkin-Elmer). The ratio of the emissions at 665 nm and at […] was taken as the measure for the amount of phosphorylated substrate. The data were normalised (enzyme reaction without inhibitor=0% inhibition, all other assay components but no enzyme=100% inhibition).

[2] = test system: HeLa, human cervical tumour cells; assay: Proliferation assay, HeLa (crystal violet); format: cell-based; conditions: 96 h, 4 days, read-out: Inhibition of HeLa cell proliferation
Experimental: (§1) Cultivated tumour cells (HeLa, human cervical tumour cells, ATCC CCL-2; NCI-H460, human non-small cell lung carcinoma cells, ATCC HTB-177; A2780, human ovarian carcinoma cells, ECACC #93112519; DU 145, hormone-independent human prostate carcinoma cells, ATCC HTB-81; HeLa-MaTu-ADR, multidrug-resistant human cervical carcinoma cells, EPO-GmbH Berlin; Caco-2, human colorectal carcinoma cells, ATCC HTB-37; B16F10, mouse melanoma cells, ATCC CRL-6475) were plated at a density of 5,000 cells/well (DU145, HeLa-MaTu-ADR), 3,000 cells/well (NCI-H460, HeLa), 2,500 cells/well (A2780), 1,500 cells/well (Caco-2), or 1,000 cells/well (B16F10) in a 96-well multititer plate in 200 μL of their respective growth medium supplemented 10% fetal calf serum. After 24 hours, the cells of one plate (zero-point plate) were stained with crystal violet (see below), while the medium of the other plates was replaced by fresh culture medium (200 μl), to which the test substances were added in various concentrations (0 μM, as well as in the range of 0.001-10 μM; the final concentration of the solvent dimethyl sulfoxide was 0.5%). The cells were incubated for 4 days in the presence of test substances. Cell proliferation was determined by staining the cells with crystal violet: the cells were fixed by adding 20 μl/measuring point of an 11% glutaric aldehyde solution for 15 minutes at room temperature. After three washing cycles of the fixed cells with water, the plates were dried at room temperature. The cells were stained by adding 100 μl/measuring point of a 0.1% crystal violet solution (pH 3.0). After three washing cycles of the stained cells with water, the plates were dried at room temperature. The dye was dissolved by adding 100 μl/measuring point of a 10% acetic acid solution. The extinction was determined by photometry at a wavelength of 595 nm. The change of cell number, in percent, was calculated by normalization of the measured values to the extinction values of the zero-point plate (=0%) and the extinction of the untreated (0 μm) cells (=100%). The IC50 values (inhibitory concentration at 50% of maximal effect) were determined by means of a 4 parameter fit.

[3] = test system: Caco-2, human colorectal carcinoma cells; assay: Proliferation assay, Caco-2 (crystal violet); format: cell-based; conditions: 96 h, Caco-2, 4 days, read-out: Inhibition of Caco-2 cell proliferation
Experimental: as §1

[4] = test system: NCI-H460, human non-small cell lung carcinoma cells; assay: Proliferation assay, NCI-H460 (crystal violet); format: cell-based; conditions: 96 h, NCI-H460, 4 days, read-out: Inhibition of NCI-H460 cell proliferation
Experimental: as §1

[5] = test system: B16F10, mouse melanoma cells; assay: Proliferation assay, B16F10 (crystal violet); format: cell-based; conditions: B16-F10, 96 h, B16F10, 4 days, read-out: Inhibition of B16F10 cell proliferation
Experimental: as §1

[6] = test system: HeLa-MaTu-ADR, multidrug-resistant human cervical carcinoma cells; assay: Proliferation assay, HeLa-MaTu-ADR (crystal violet); format: cell-based; conditions: 96 h, 4 days, read-out: Inhibition of HeLa-MaTu-ADR cell proliferation
Experimental: as §1

[7] = test system: DU 145, hormone-independent human prostate carcinoma cells; assay: Proliferation assay, DU145 (crystal violet); format: cell-based; conditions: DU-145, 96 h, DU145, 4 days, read-out: Inhibition of DU145 cell proliferation
Experimental: as §1

| Structure (SMILES) | IC50 [1] | Selectivity CDK9 over CDK2: IC50 (CDK2)/IC50 (CDK9) [1] | IC50 [2] | IC50 [3] | IC50 [4] | IC50 [5] | IC50 [6] | IC50 [7] |
| --- | --- | --- | --- | --- | --- | --- | --- | --- |
| CS(=N)(=O)Cc1cc(F)nc(Nc2cc(-c3ccc(F)c4ccoc34)c(F)cn2)c1 (racemic) [Example 1, (rac)-5-Fluoro-4-(4-fluoro-1-benzofuran-7-yl)-N-{6-fluoro-4-[(S-methylsulfonimidoyl)methyl]pyridin-2-yl}pyridin-2-amine] | 4 nM | 11 | 30 nM | 34 nM | 36 nM | 41 nM | 30 nM | 33 nM |
| CS(=O)(Cc1cc(F)nc(Nc2cc(-c3ccc(F)c4ccoc34)c(F)cn2)c1)=NC(=O)C(F)(F)F (racemic) [Example 2, (rac)-2,2,2-Trifluoro-N-{[(2-fluoro-6-{[5-fluoro-4-(4-fluoro-1-benzofuran-7-yl)pyridin-2-yl]amino}pyridin-4-yl)methyl](methyl)oxido-λ^6-sulfanylidene}acetamide] | 7 nM | 54 | 31 nM | 35 nM | 32 nM | 42 nM | 30 nM | 32 nM |
| CS(=N)(=O)Cc1cc(Nc2cc(-c3ccc(F)c4ccoc34)c(F)cn2)nc(C(F)(F)F)c1 (racemic) [Example 3, (rac)-5-Fluoro-4-(4-fluoro-1-benzofuran-7-yl)-N-{4-[(S-methylsulfonimidoyl)methyl]-6-(trifluoromethyl)pyridin-2-yl}pyridin-2-amine] | 5.8 nM | 3.6 | 6 nM | 19 nM | 21 nM | 19 nM | 11 nM | 15 nM |
| CS(=O)(Cc1cc(Nc2cc(-c3ccc(F)c4ccoc34)c(F)cn2)nc(C(F)(F)F)c1)=NC(=O)C(F)(F)F (racemic) [Example 4, (rac)-2,2,2-Trifluoro-N-[{[2-{[5-fluoro-4-(4-fluoro-1-benzofuran-7-yl)pyridin-2-yl]amino}-6-(trifluoromethyl)pyridin-4-yl]methyl}(methyl)oxido-λ^6-sulfanylidene]acetamide] | 19 nM | 5.8 | 31 nM | 40 nM | 36 nM | 44 nM | 30 nM | 37 nM |
| CS(=N)(=O)Cc1ccnc(Nc2cc(-c3ccc(F)c4ccoc34)c(F)cn2)c1 (racemic) [Example 5, (rac)-5-Fluoro-4-(4-fluoro-1-benzofuran-7-yl)-N-{4-[(S-methylsulfonimidoyl)methyl]pyridin-2-yl}pyridin-2-amine] | 3.4 nM | 38 | 31 nM | 46 nM | 120 nM | 53 nM | 42 nM | 55 nM |
| CCc1cc(CS(C)(=N)=O)cc(Nc2cc(-c3ccc(F)c4ccoc34)c(F)cn2)n1 (racemic) [Example 8, (rac)-N-{6-Ethyl-4-[(S-methylsulfonimidoyl)methyl]pyridin-2-yl}-5-fluoro-4-(4-fluoro-1-benzofuran-7-yl)pyridin-2-amine] | – | – | 7.6 nM | 9.4 nM | 35 nM | 32 nM | 8.8 nM | 11 nM |
| CS(=O)(Cc1ccnc(Nc2cc(-c3ccc(F)c4ccoc34)c(F)cn2)c1)=NC#N (racemic) [Example 9, (rac)-{[(2-{[5-fluoro-4-(4-fluoro-1-benzofuran-7-yl)pyridin-2-yl]amino}pyridin-4-yl)methyl](methyl)oxido-λ^6-sulfanylidene}cyanamide] | 2.6 nM | 56 | – | – | – | – | – | – |
| CC(=O)N=S(C)(=O)Cc1ccnc(Nc2cc(-c3ccc(F)c4ccoc34)c(F)cn2)c1 (racemic) [Example 10, (rac)-N-{[(2-{[5-fluoro-4-(4-fluoro-1-benzofuran-7-yl)pyridin-2-yl]amino}pyridin-4-yl)methyl](methyl)oxido-λ^6-sulfanylidene}acetamide] | 2.7 nM | 61 | – | – | – | – | – | – |
| CCOC(=O)N=S(C)(=O)Cc1ccnc(Nc2cc(-c3ccc(F)c4ccoc34)c(F)cn2)c1 (racemic) [Example 11, (rac)-Ethyl {[(2-{[5-fluoro-4-(4-fluoro-1-benzofuran-7-yl)pyridin-2-yl]amino}pyridin-4-yl)methyl](methyl)oxido-λ^6-sulfanylidene}carbamate] | 3.1 nM | 45 | – | – | – | – | – | – |
| CCNC(=O)N=S(C)(=O)Cc1ccnc(Nc2cc(-c3ccc(F)c4ccoc34)c(F)cn2)c1 (racemic) [Example 12, (rac)-1-Ethyl-3-{[(2-{[5-fluoro-4-(4-fluoro-1-benzofuran-7-yl)pyridin-2-yl]amino}pyridin-4-yl)methyl](methyl)oxido-λ^6-sulfanylidene}urea] | 2.6 nM | 44 | – | – | – | – | – | – |
| CS(=O)(Cc1ccnc(Nc2cc(-c3ccc(F)c4ccoc34)c(F)cn2)c1)=NC(=O)NCC(F)(F)F (racemic) [Example 13, (rac)-1-{[(2-{[5-Fluoro-4-(4-fluoro-1-benzofuran-7-yl)pyridin-2-yl]amino}pyridin-4-yl)methyl](methyl)oxido-λ^6-sulfanylidene}-3-(2,2,2-trifluoroethyl)urea] | 2.6 nM | 108 | – | – | – | – | – | – |
